A short description of the data set: Human HepG2 cell viability assay in 384 well format. The format is toxicity, cell-based. On the set-up: dose 125 nL, time 70.5 hour; concentration not given beside the values. The following applies: HepG2 cells, read-out: Inhibition.
Consider `CCN(c1ccc(C(=O)NCCCN2CCCCC2)cc1)S(=O)(=O)CC`, for which the cytotoxicity at 70.5 h was -26.7%.

As to `CN(C)CC(Nc1nc(N)nc2c1CCNCC2)c1ccccc1` (centres undefined), the cytotoxicity at 70.5 h is -18.8%.

Turning to `CC(C)(C)C(O)CN1CCN(C(=O)c2cccc3[nH]ncc23)CC1` (centres undefined), the cytotoxicity at 70.5 h was -3.16%.

For `COc1cc(N2C[C@H]3CCC[C@@H](CN4CCCC4)[C@H]3C2)ncn1`, the cytotoxicity at 70.5 h is -8.91%.

As to `Cc1noc(C2CCC3(CCN(C(=O)c4ncccn4)CC3)O2)n1` (centres undefined), the cytotoxicity at 70.5 h turned out to be 2.54%.

For `CCC1COCCN1C(=O)NCc1nccn1CC(C)C` (centres undefined), the cytotoxicity at 70.5 h is -15.6%.

Turning to `CNc1nc(C(=O)NCc2cccnc2N(C)C2CCCCC2)cs1`, the cytotoxicity at 70.5 h was determined as 12.4%.

For the molecule `CC(c1nnc(-c2cccs2)o1)N1CCc2cncnc2C1` (centres undefined), the cytotoxicity at 70.5 h was -1.71%.

Turning to `CCc1[nH]c(C2(N)CCCCC2)nc(=O)c1C`, the cytotoxicity at 70.5 h is -4.64%.

Turning to `CCN(CC)C(=O)[C@@H]1C[C@@H](N)CN1C(=O)c1cc2c([nH]c1=O)CCC2`, the cytotoxicity at 70.5 h was -10.8%.

Take `CC(C(=O)N1CCN(c2ccccc2Cl)CC1)n1cncn1` (centres undefined): the cytotoxicity at 70.5 h is 10.3%.

With `O=C(CC1CC1)N1CCC2(CC1)CC(Oc1ccccc1)CO2` (centres undefined), the cytotoxicity at 70.5 h is -4.92%.

On to `CCC1c2ccsc2CCN1C(=O)NCc1cccnc1N(C)C` (centres undefined), for which the cytotoxicity at 70.5 h was 13%.

With `CC(C)NC(=O)C1CN(C(=O)c2ccccc2)CC12CCOCC2` (centres undefined), the cytotoxicity at 70.5 h is -5.57%.

Take `Cc1noc([C@@H]2C[C@H]3CN(Cc4cc(C)on4)C[C@H]3O2)n1`: the cytotoxicity at 70.5 h is -4.39%.

As for `CCn1ccnc1-c1nccn1-c1ccccc1CN1CCOCC1`, the cytotoxicity at 70.5 h is -8.91%.

Turning to `Cc1ccc(CN2CCc3nc(C(C)C)nc(O)c3CC2)s1`, the cytotoxicity at 70.5 h is -4.74%.

As to `CC(C)c1ocnc1C(=O)NC1(c2cccc(F)c2)CCOCC1`, the cytotoxicity at 70.5 h was -3.27%.

On to `CSc1ccsc1C(=O)NCCNC(=O)C1CC1`, for which the cytotoxicity at 70.5 h is -6.91%.

Consider `CC(c1ccccc1)n1c(SCC(=O)O)nnc1-c1ccccc1Cl` (centres undefined), for which the cytotoxicity at 70.5 h is -4%.

`CS(=O)(=O)Nc1cccc(C(=O)Nc2ccc3c(c2)C(=O)NC3)c1`: the cytotoxicity at 70.5 h is -6.35%.

On to `Cc1cc(CN2CCC3(CC2)COC(COCC2CC2)C3)no1` (centres undefined), for which the cytotoxicity at 70.5 h is -9.77%.

With `CCCn1nnnc1COc1ccc(C(=O)OC)cc1OC`, the cytotoxicity at 70.5 h is -16.9%.

Consider `Cn1nnc(NCc2ccc(OCc3ccc(Cl)cc3)cc2)n1`, for which the cytotoxicity at 70.5 h is -4.01%.

Consider `CCC(C)NC(=O)c1nnn(-c2ccc(Br)cc2)n1` (centres undefined), for which the cytotoxicity at 70.5 h was determined as 5.21%.

As to `CC(CN(C)Cc1cccc(-n2cccn2)c1)C(F)(F)F` (centres undefined), the cytotoxicity at 70.5 h is -1.16%.

Regarding `COC(CNC(=O)N1CCC(n2cncn2)CC1)c1ccccc1` (centres undefined), the cytotoxicity at 70.5 h amounted to 6.02%.

`COc1ncc(NS(=O)(=O)c2ccc(F)c(F)c2)c(OC)n1`: the cytotoxicity at 70.5 h is -1.82%.

Take `COc1ncnc2c1CCN(C(=O)Cc1cccc(F)c1)CC2`: the cytotoxicity at 70.5 h was -3.34%.

As to `Cn1cc(Cl)c(CN2CCn3nc(C(=O)Nc4ccccc4)cc3C2)n1`, the cytotoxicity at 70.5 h was 32.8%.

`c1ccc2c(c1)CCN(c1nc(-c3ccncc3)nc3c1CCNC3)C2`: the cytotoxicity at 70.5 h amounted to 23.9%.

As to `Cc1cc(N2CCCN(C(C(=O)O)c3cccc(C)c3F)CC2)ccn1` (centres undefined), the cytotoxicity at 70.5 h was found to be 3.14%.

With `CN(Cc1cn2c(n1)CN(CC1CC1)CC2)Cc1ccco1`, the cytotoxicity at 70.5 h is -11.8%.

`Fc1ccc(CNCc2nnc3n2CC(C(F)(F)F)CC3)c(F)c1` (centres undefined): the cytotoxicity at 70.5 h is -7.11%.

As to `O=C(c1cc(CC2(NC3CCCCC3)COC2)no1)N1CCCCC1`, the cytotoxicity at 70.5 h worked out at 11.7%.

For `CC(C)CN1CCC(C(=O)NCCNC(=O)c2ccco2)CC1`, the cytotoxicity at 70.5 h was -5.07%.

Take `CSCC[C@H](NC(=O)CCn1cc(C(C)=O)c2ccccc21)C(=O)O`: the cytotoxicity at 70.5 h is -8.28%.

Take `N#CCCCOc1cccnc1NC(=O)Cc1ccccc1F`: the cytotoxicity at 70.5 h was 0.586%.

Consider `Cc1noc2ncc(C(=O)N3CCCC3c3ccsc3)cc12` (centres undefined), for which the cytotoxicity at 70.5 h was -1.73%.

The record behind these values is ChEMBL document CHEMBL3507680, “University of Dundee, Gates Library screen for HepG2 cell viability”.
